We go through 59 molecules from doi:10.1101/2025.03.25.645215v1 (biorxiv, 2025).

Sequence of GAT1 (hGAT1) (P30531 whole entry): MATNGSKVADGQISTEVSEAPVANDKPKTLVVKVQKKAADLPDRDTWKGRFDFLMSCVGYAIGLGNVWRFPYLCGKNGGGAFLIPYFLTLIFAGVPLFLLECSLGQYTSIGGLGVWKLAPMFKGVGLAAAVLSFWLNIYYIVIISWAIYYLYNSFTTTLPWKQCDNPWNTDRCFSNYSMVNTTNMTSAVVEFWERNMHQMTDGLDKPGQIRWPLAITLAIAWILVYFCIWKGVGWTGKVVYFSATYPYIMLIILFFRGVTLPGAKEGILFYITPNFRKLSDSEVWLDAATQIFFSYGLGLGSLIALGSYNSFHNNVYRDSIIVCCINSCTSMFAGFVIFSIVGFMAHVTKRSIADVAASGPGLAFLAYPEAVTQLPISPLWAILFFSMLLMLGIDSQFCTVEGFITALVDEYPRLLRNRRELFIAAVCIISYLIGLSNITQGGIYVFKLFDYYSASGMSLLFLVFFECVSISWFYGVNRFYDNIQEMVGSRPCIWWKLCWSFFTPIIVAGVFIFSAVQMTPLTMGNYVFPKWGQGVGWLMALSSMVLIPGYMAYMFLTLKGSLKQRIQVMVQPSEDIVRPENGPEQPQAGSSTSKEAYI
Sequence of SERT (hSERT) (P31645 whole entry): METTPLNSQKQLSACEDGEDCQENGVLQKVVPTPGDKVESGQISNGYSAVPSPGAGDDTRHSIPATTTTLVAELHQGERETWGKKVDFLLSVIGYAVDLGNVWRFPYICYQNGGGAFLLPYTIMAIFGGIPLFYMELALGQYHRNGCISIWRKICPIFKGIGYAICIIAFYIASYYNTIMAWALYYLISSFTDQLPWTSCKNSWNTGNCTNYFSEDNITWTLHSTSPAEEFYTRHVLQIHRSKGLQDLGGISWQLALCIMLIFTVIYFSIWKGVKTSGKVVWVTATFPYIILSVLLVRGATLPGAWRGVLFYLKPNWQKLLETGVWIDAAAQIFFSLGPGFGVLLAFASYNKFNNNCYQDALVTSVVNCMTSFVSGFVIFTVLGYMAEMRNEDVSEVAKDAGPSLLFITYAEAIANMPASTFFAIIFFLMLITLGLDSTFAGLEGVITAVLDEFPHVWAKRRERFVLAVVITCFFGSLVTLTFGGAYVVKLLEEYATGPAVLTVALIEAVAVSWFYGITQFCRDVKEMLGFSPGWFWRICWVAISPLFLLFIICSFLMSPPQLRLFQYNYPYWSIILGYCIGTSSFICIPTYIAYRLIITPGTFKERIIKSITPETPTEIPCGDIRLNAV

One assay has as its target SERT (hSERT) (Homo sapiens, UniProt P31645). Put plainly: 3H-5HT uptake inhibition, HEK293, 384-well. The format is cell-based.
Conditions: not given
In turn, `CC1(C)CC(=O)C2=C(C1)Nc1ccccc1N(C(=O)c1ccccc1)C2c1ccc(C(C)(C)C)cc1` (centres unmarked) [11n] returned an IC50 above 80000 nM.

In the next assay the target is T1, B^0AT2/SLC6A15 (eGFP-hSLC6A15) (Homo sapiens, UniProt Q9H2J7).
T1 sequence (Q9H2J7 1-730): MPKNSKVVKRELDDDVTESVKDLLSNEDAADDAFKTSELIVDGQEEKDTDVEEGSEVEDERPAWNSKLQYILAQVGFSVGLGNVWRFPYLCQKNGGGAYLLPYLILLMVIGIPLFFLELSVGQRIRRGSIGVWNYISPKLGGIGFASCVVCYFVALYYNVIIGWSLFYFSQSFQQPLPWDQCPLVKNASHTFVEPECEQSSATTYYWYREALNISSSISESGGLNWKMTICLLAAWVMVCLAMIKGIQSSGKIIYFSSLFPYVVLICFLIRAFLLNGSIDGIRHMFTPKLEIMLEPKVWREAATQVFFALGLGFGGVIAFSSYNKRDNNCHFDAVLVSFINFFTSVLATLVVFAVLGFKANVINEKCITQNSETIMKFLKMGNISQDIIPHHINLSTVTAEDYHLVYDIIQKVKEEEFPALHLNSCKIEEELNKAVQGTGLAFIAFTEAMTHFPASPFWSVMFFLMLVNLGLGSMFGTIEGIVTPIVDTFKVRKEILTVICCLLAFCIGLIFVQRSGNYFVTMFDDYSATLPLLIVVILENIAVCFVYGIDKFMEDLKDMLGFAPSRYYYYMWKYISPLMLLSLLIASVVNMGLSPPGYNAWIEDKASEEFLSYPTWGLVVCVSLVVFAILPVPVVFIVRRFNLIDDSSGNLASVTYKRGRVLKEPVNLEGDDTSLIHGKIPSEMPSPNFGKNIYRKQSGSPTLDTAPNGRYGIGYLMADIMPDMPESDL
Put plainly: cell-based. On the set-up: species or system HEK293 eGFP-hSLC6A15.
Conditions: not given
In turn, `O=C1CCCC2=C1C(c1cccnc1)N(C(=O)c1ccccc1)c1ccccc1N2` (centres unmarked) [12a] returned an IC50 of 1600 ± 300 nM. The same measure, in the same setting: as for `O=C1CCCC2=C1C(c1ccco1)N(C(=O)c1ccccc1)c1ccccc1N2` (centres unmarked) [12b], the figure is 5100 ± 2000 nM.

`CC1(C)CC(=O)C2=C(C1)Nc1ccccc1N(C(=O)c1ccccc1)C2c1cccnc1` (centres unmarked) [12c] showed an IC50 of 1900 ± 400 nM. As for `CC1(C)CC(=O)C2=C(C1)Nc1ccccc1N(C(=O)c1ccccc1)C2c1ccccn1` (centres unmarked) [12d], half-maximal inhibition (IC50) required 3900 ± 800 nM. As to `CC1(C)CC(=O)C2=C(C1)Nc1ccccc1N(C(=O)c1ccccc1)C2c1ccco1` (centres unmarked) [12e], the IC50 amounted to 1300 ± 100 nM. Consider `Cc1ccc(C2C3=C(CC(C)(C)CC3=O)Nc3ccccc3N2C(=O)c2ccccc2)o1` (centres unmarked) [12f], for which the IC50 worked out at 2600 ± 200 nM. Still for that read-out and setting: in the case of `Cn1cccc1C1C2=C(CC(C)(C)CC2=O)Nc2ccccc2N1C(=O)c1ccccc1` (centres unmarked) [12g] it was above 80000 nM; in that of `CC1(C)CC(=O)C2=C(C1)Nc1ccccc1N(C(=O)c1ccccc1)C2c1c[nH]c2ccccc12` (centres unmarked) [12h], above 30000 nM.

Staying with this assay, now noted: read-out: B^0AT2 IC50; inhibitor.
Regarding `CC1(C)CC(=O)C2=C(C1)Nc1ccccc1N(C(=O)c1ccccc1)C2c1ccc(-c2ccc(Br)cc2)o1` (centres unmarked) [12i], the IC50 was above 80000 nM.

The next assay concerns NTT4/SLC6A17 (NTT4-B^0AT2 chimera). Put plainly: 3H-proline uptake inhibition, HEK293, 384-well. The format is cell-based. The note with it: blanket statement for all 1,5-benzodiazepine analogs.
`CC1(C)CC(=O)C2=C(C1)Nc1ccccc1N(C(=O)c1ccccc1)C2c1ccc(C(C)(C)C)cc1` (centres unmarked) [11n] returned a half-maximal inhibitory concentration (IC50) above 80000 nM.

A further assay addresses T1, B^0AT2/SLC6A15 (eGFP-hSLC6A15). Briefly: cell-based. On the set-up: species or system HEK293 eGFP-hSLC6A15.
Conditions: not given
This is another data set of the same source.
Molecule `CC1(C)CC(=O)C2=C(C1)Nc1ccccc1N(C(=O)c1ccccc1)C2c1ccccc1` (centres unmarked) [11a] returned an IC50 of 1200 ± 100 nM. Still for that read-out and setting: as for `CCOc1cc(C2C3=C(CC(C)(C)CC3=O)Nc3ccccc3N2C(=O)c2ccccc2)ccc1OCc1ccc(Cl)cc1` (centres unmarked) [11aa], the figure is above 80000 nM; as for `COc1cc(C2C3=C(CC(C)(C)CC3=O)Nc3ccccc3N2C(=O)c2ccccc2)cc(OC)c1OC` (centres unmarked) [11ab], 11300 ± 14900 nM.

`CC1(C)CC(=O)C2=C(C1)Nc1ccccc1N(C(=O)c1ccccc1)C2c1ccc(F)cc1` (centres unmarked) [11b] returned an IC50 of 2000 ± 200 nM. Still for that read-out and setting: in the case of `CC1(C)CC(=O)C2=C(C1)Nc1ccccc1N(C(=O)c1ccccc1)C2c1ccc(Cl)cc1` (centres unmarked) [11c] it was 900 ± 100 nM; in that of `CC1(C)CC(=O)C2=C(C1)Nc1ccccc1N(C(=O)c1ccccc1)C2c1ccc(Br)cc1` (centres unmarked) [11d], 740 ± 70 nM; in that of `CC1(C)CC(=O)C2=C(C1)Nc1ccccc1N(C(=O)c1ccccc1)C2c1ccc(C#N)cc1` (centres unmarked) [11e], 730 ± 40 nM. On the same count and under the same terms, in the case of `COc1ccc(C2C3=C(CC(C)(C)CC3=O)Nc3ccccc3N2C(=O)c2ccccc2)cc1` (centres unmarked) [11f] it was 400 ± 30 nM; in that of `CCOc1ccc(C2C3=C(CC(C)(C)CC3=O)Nc3ccccc3N2C(=O)c2ccccc2)cc1` (centres unmarked) [11g], 500 ± 50 nM; in that of `CC(C)Oc1ccc(C2C3=C(CC(C)(C)CC3=O)Nc3ccccc3N2C(=O)c2ccccc2)cc1` (centres unmarked) [11h], 1100 ± 100 nM. Same read-out and setting: in the case of `CCCCOc1ccc(C2C3=C(CC(C)(C)CC3=O)Nc3ccccc3N2C(=O)c2ccccc2)cc1` (centres unmarked) [11i] it was 580 ± 30 nM; in that of `CCCCCOc1ccc(C2C3=C(CC(C)(C)CC3=O)Nc3ccccc3N2C(=O)c2ccccc2)cc1` (centres unmarked) [11j], 1200 ± 100 nM; in that of `CC1(C)CC(=O)C2=C(C1)Nc1ccccc1N(C(=O)c1ccccc1)C2c1ccc(C(F)(F)F)cc1` (centres unmarked) [11k], 2000 ± 200 nM. Take `CN(C)c1ccc(C2C3=C(CC(C)(C)CC3=O)Nc3ccccc3N2C(=O)c2ccccc2)cc1` (centres unmarked) [11l]: 10600 ± 1700 nM corresponded to half-maximal inhibition (IC50). Still for that read-out and setting: in the case of `COC(=O)c1ccc(C2C3=C(CC(C)(C)CC3=O)Nc3ccccc3N2C(=O)c2ccccc2)cc1` (centres unmarked) [11m] it was 1800 ± 300 nM; in that of `CC1(C)CC(=O)C2=C(C1)Nc1ccccc1N(C(=O)c1ccccc1)C2c1ccc(C(C)(C)C)cc1` (centres unmarked) [11n], above 80000 nM; in that of `CC1(C)CC(=O)C2=C(C1)Nc1ccccc1N(C(=O)c1ccccc1)C2c1cccc(F)c1` (centres unmarked) [11o], 22900 ± 14700 nM.

Take `COc1cccc(C2C3=C(CC(C)(C)CC3=O)Nc3ccccc3N2C(=O)c2ccccc2)c1` (centres unmarked) [11p]: 3200 ± 500 nM corresponded to half-maximal inhibition (IC50). The same measure, in the same setting: as for `CCCOc1cccc(C2C3=C(CC(C)(C)CC3=O)Nc3ccccc3N2C(=O)c2ccccc2)c1` (centres unmarked) [11q], the figure is 720 ± 70 nM; as for `CC(=O)Oc1cccc(C2C3=C(CC(C)(C)CC3=O)Nc3ccccc3N2C(=O)c2ccccc2)c1` (centres unmarked) [11r], 640 ± 70 nM. On the same count and under the same terms, in the case of `CC1(C)CC(=O)C2=C(C1)Nc1ccccc1N(C(=O)c1ccccc1)C2c1ccccc1F` (centres unmarked) [11s] it was 19900 ± 8900 nM.

`CC1(C)CC(=O)C2=C(C1)Nc1ccccc1N(C(=O)c1ccccc1)C2c1ccccc1Cl` (centres unmarked) [11t]: the half-inhibitory concentration (IC50) is above 40000 nM. Still for that read-out and setting: in the case of `COc1ccccc1C1C2=C(CC(C)(C)CC2=O)Nc2ccccc2N1C(=O)c1ccccc1` (centres unmarked) [11u] it was above 60000 nM; in that of `COc1ccc(C2C3=C(CC(C)(C)CC3=O)Nc3ccccc3N2C(=O)c2ccccc2)cc1OC` (centres unmarked) [11w], 7100 ± 2300 nM; in that of `CCCOc1ccc(C2C3=C(CC(C)(C)CC3=O)Nc3ccccc3N2C(=O)c2ccccc2)cc1OC` (centres unmarked) [11y], 1100 ± 100 nM. Still for that read-out and setting: in the case of `CC1(C)CC(=O)C2=C(C1)Nc1ccccc1N(C(=O)c1ccccc1)C2c1ccc(Cl)c(Cl)c1` (centres unmarked) [11z] it was 2300 ± 400 nM.

The assay is the same for the next values; noted with them: read-out: B^0AT2 IC50; inhibitor.
On to `COc1c(Cl)cc(Cl)cc1C1C2=C(CC(C)(C)CC2=O)Nc2ccccc2N1C(=O)c1ccccc1` (centres unmarked) [11ac], for which the half-maximal inhibitory concentration (IC50) is above 80000 nM.

A further assay has the same target. Briefly: cell-based. On the set-up: species or system HEK293 eGFP-hSLC6A15.
Conditions: not given
The source holds these as a separate data set.
Consider `COc1cc(C2Nc3ccccc3NC3=C2C(=O)CCC3)ccc1O` (centres unmarked) [13a], for which the IC50 is above 80000 nM. `CC1(C)CC(=O)C2=C(C1)Nc1ccccc1NC2c1ccccc1` (centres unmarked) [13c]: the half-inhibitory concentration (IC50) was above 80000 nM. In turn, `CC1(C)CC(=O)C2=C(C1)Nc1ccccc1N(Cc1ccccc1)C2c1ccccc1` (centres unmarked) [13d] had an IC50 above 80000 nM. `CCCCOc1ccc(C2C3=C(CC(C)(C)CC3=O)Nc3ccccc3N2C(=O)c2ccccc2F)cc1` (centres unmarked) [13e]: the IC50 was 1400 ± 100 nM. Same read-out and setting: in the case of `COc1ccc(C2C3=C(CC(C)CC3=O)Nc3ccccc3N2C(=O)c2ccc(F)cc2)cc1` (centres unmarked) [13f] it was 9000 ± 11000 nM; in that of `COc1ccc(C2C3=C(CC(C)(C)CC3=O)Nc3ccccc3N2C(=O)c2ccc(Cl)cc2)cc1OC` (centres unmarked) [13g], above 80000 nM; in that of `O=C1CCCC2=C1C(c1ccccc1)N(C(=O)c1ccc(Cl)cc1)c1ccccc1N2` (centres unmarked) [13h], above 80000 nM.

As to `Cc1ccc(C(=O)N2c3ccccc3NC3=C(C(=O)CCC3)C2c2ccccc2)cc1` (centres unmarked) [13i], the concentration for half-maximal inhibition (IC50) was above 80000 nM.

The molecule `COc1ccc(C(=O)N2c3ccccc3NC3=C(C(=O)CCC3)C2c2ccccc2)cc1` (centres unmarked) [13j] registered a 50% inhibitory concentration (IC50) above 80000 nM. `O=C1CCCC2=C1C(c1ccccc1)N(C(=O)C1CCCCC1)c1ccccc1N2` (centres unmarked) [13k] had an IC50 above 80000 nM.

On to `O=C1CCCC2=C1C(c1ccccc1)N(C(=O)c1ccco1)c1ccccc1N2` (centres unmarked) [13l], for which the IC50 is above 55000 nM. On the same count and under the same terms, as for `O=C1CCCC2=C1C(c1ccccc1)N(C(=O)c1ccc3ccccc3c1)c1ccccc1N2` (centres unmarked) [13m], the figure is above 80000 nM.

Still in this assay, the particulars now being: read-out: B^0AT2 IC50; inhibitor.
With `CCOc1cc(C2C3=C(CCCC3=O)Nc3ccccc3N2C(=O)CC)ccc1O` (centres unmarked) [13b], the concentration for half-maximal inhibition (IC50) was above 80000 nM.

The next assay has as its target GAT1 (hGAT1) (Homo sapiens, UniProt P30531). Briefly: 3H-GABA uptake inhibition, HEK293, 384-well. It counts as cell-based.
Conditions: not given
Consider `CC1(C)CC(=O)C2=C(C1)Nc1ccccc1N(C(=O)c1ccccc1)C2c1ccc(C(C)(C)C)cc1` (centres unmarked) [11n], for which the IC50 is above 80000 nM.

In a further assay the target is T1, B^0AT2/SLC6A15 (eGFP-hSLC6A15). Put plainly: cell-based. On the set-up: species or system HEK293 eGFP-hSLC6A15.
Conditions: not given
This is another data set of the same source.
`O=C1CC(c2ccccc2)CC2=C1C(c1ccccc1)N(C(=O)c1ccccc1)c1ccccc1N2` (centres unmarked) [14a] came in with an IC50 of 1100 ± 100 nM. Molecule `COc1ccc(C2CC(=O)C3=C(C2)Nc2ccccc2N(C(=O)c2ccccc2)C3c2ccccc2)cc1` (centres unmarked) [14b] returned a half-maximal inhibitory concentration (IC50) of 1000 ± 100 nM. On the same count and under the same terms, in the case of `COc1ccc(C2CC(=O)C3=C(C2)Nc2ccccc2N(C(=O)c2ccccc2)C3c2ccc(OC)cc2)cc1` (centres unmarked) [14e] it was 1200 ± 200 nM; in that of `COc1ccc(C2C3=C(CC(c4ccc(C)cc4)CC3=O)Nc3ccccc3N2C(=O)c2ccccc2)cc1OC` (centres unmarked) [14g], 2100 ± 500 nM; in that of `COc1cccc(C2C3=C(CC(c4ccccc4)CC3=O)Nc3ccccc3N2C(=O)c2ccccc2)c1` (centres unmarked) [14h], above 80000 nM. Same read-out and setting: as for `COc1ccc(C2CC(=O)C3=C(C2)Nc2ccccc2N(C(=O)c2ccccc2)C3c2cccc(OC)c2)cc1` (centres unmarked) [14i], the figure is above 80000 nM. As for `Cc1ccc(C2C3=C(CC(c4ccc(Cl)cc4)CC3=O)Nc3ccccc3N2C(=O)c2ccccc2)cc1` (centres unmarked) [14j], the concentration for half-maximal inhibition (IC50) was above 80000 nM. Still for that read-out and setting: as for `Cc1ccc(C2C3=C(CC(c4cccc(Cl)c4)CC3=O)Nc3ccccc3N2C(=O)c2ccccc2)cc1` (centres unmarked) [14k], the figure is above 80000 nM.

The molecule `Cc1ccc(C2C3=C(CC(c4ccccc4F)CC3=O)Nc3ccccc3N2C(=O)c2ccccc2)cc1` (centres unmarked) [14l] displayed an IC50 above 80000 nM. Still for that read-out and setting: as for `CC1CC(=O)C2=C(C1)Nc1ccccc1N(C(=O)c1ccccc1)C2c1cc(F)cc(F)c1` (centres unmarked) [14m], the figure is 700 ± 50 nM.
